Measured values from patent US9981920B2, “Inhibitors of histone deacetylase” (Rodin Therapeutics, Inc., priority 2014, dated 2018).

Molecular target: T1, HDAC2 (Homo sapiens, UniProt Q92769)
T1 construct: purchased Proteros
Experiment: Reporter displacement assay (HDAC2 Kd)
Assay type: binding
Conditions: HDAC2 with C-terminal HIS-Tag 20 nM, 180 nM reporter probe, read after 4 h; Kd by Cheng Prusoff from probe displacement
Protocol: HDAC2 containing a C-terminal HIS-Tag (Proteros) and fluorescently-labeled anti-HIS-antibody are diluted in one vial in assay buffer 50 mM Tris, pH 8.0, 1 mM DTT, 150 mM NaCl, and 0.01% Tween20. Components are pre-incubated for 30 min, then a small volume of reporter probe (Proteros) is added from a highly concentrated stock and incubation is continued for another 30 min. Final concentrations after adding the reporter probe amount to 20 nM HDAC2, 4 nM antibody, and 180 nM probe.
Ten μl/well of pre-formed complex are transferred into 384 well assay plates (Corning). Compounds to be profiled are serially diluted from 1×10^1-5.7×10^−5 mM in DMSO and 60 nl are added to assay plates by pintool transfer (CybiWell, Cybio). Fluorescence intensity signal is read after 4 h in a Pherastar FS (BMG Labtech) at 337/665 nm.
For Kd determination, percent probe displacement values are calculated for each compound concentration and plotted against the compound concentration. IC50-like values (corresponding to 50% probe displacement) are calculated using standard fitting algorithms. Since the reporter probe is used at a concentration reflecting its own Kd value, compound Kd values can be calculated according to the Cheng Prusoff equation.
In the table, “A” indicates a Kd value of less than 0.1 μM; “B” a Kd value of between 0.1 μM and 1.0 μM; “C” a Kd value of greater than 1.0 μM and less than or equal to 10.0 μM; and “D” a Kd value of greater than 10.0 μM.

T1 sequence (Q92769 whole entry): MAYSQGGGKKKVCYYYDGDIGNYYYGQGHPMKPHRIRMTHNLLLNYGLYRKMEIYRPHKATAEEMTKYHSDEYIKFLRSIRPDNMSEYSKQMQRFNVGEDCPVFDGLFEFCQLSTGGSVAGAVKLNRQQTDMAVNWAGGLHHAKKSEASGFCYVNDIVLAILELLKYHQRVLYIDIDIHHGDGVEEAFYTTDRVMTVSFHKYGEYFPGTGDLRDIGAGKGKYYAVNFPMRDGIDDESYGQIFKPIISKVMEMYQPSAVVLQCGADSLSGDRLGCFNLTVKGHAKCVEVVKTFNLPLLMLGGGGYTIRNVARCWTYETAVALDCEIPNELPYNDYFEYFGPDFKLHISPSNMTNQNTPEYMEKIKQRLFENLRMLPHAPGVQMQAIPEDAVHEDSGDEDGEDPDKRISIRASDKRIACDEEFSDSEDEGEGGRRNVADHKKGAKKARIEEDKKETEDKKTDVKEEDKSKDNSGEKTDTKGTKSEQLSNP

Compound	Kd
Cc1ccc(C(=O)CSc2nc(O)c3ccccc3n2)cc1 [Compound 100]	1 to 10 µM
C=CCn1c(SCC(=O)c2ccc(C)cc2)nc(O)cc1=O [Compound 101]	< 0.1 µM
CCn1c(SCC(=O)c2ccccc2)nc(O)cc1=O [Compound 102]	< 0.1 µM
CCc1c(O)nc(SCC(=O)c2ccc(OC)cc2)[nH]c1=O [Compound 103]	< 0.1 µM
Cc1ccc(C(=O)CSc2nc(C)cc(=O)[nH]2)cc1 [Compound 104]	0.1 to 1 µM
CCc1ccc(C(=O)CSc2nc(C)cc(=O)[nH]2)cc1 [Compound 105]	1 to 10 µM
CC(=O)Nc1ccc(C(=O)CSc2nc(O)cc(=O)[nH]2)cc1 [Compound 106]	< 0.1 µM
Cc1ccc(C(=O)CSc2nc(O)cc(=O)[nH]2)cc1 [Compound 107]	< 0.1 µM
C=CCn1c(SCC(O)c2ccc(C)cc2)nc(O)cc1=O (stereo not shown) [Compound 108]	0.1 to 1 µM
Cc1ccc(C(=O)COc2nc(C)cc(=O)[nH]2)cc1 [Compound 109]	> 10 µM
Cc1ccc(C(=O)CSc2nc(O)c(-c3ccccc3)c(=O)[nH]2)cc1 [Compound 110]	< 0.1 µM
O=C(CSc1nc(O)c(Cc2ccccc2)c(=O)[nH]1)c1ccccc1 [Compound 111]	0.1 to 1 µM
Cc1ccc(C(=O)CSc2nc(O)cc(=O)n2C)cc1 [Compound 112]	0.1 to 1 µM
Cc1ccc(C(=O)CSc2nc(O)cc(=O)n2C(C)C)cc1 [Compound 113]	0.1 to 1 µM
CC(=O)Nc1ccc(/C(CSc2nc(O)cc(=O)[nH]2)=N\O)cc1 [Compound 114]	1 to 10 µM
CCn1c(SCC(=O)c2ccc(C)cc2)nc(O)cc1=O [Compound 115]	0.1 to 1 µM
CC(=O)Nc1ccc(C(=O)CSc2nc(O)cc(=O)n2C)cc1 [Compound 116]	< 0.1 µM
CCn1c(SCC(=O)c2ccc(NC(C)=O)cc2)nc(O)cc1=O [Compound 117]	< 0.1 µM
CC(=O)Nc1ccc(C(=O)CSc2nc(O)cc(=O)n2C(C)C)cc1 [Compound 118]	< 0.1 µM
CC(=O)Nc1ccc(C(=O)CSc2nc(O)c(-c3ccccc3)c(=O)[nH]2)cc1 [Compound 119]	< 0.1 µM
COc1ccc(C(=O)CSc2nc(O)cc(=O)[nH]2)cc1 [Compound 120]	0.1 to 1 µM
COc1ccc(C(=O)CSc2nc(O)c(-c3ccccc3)c(=O)[nH]2)cc1 [Compound 121]	0.1 to 1 µM
Nc1ccc(C(=O)CSc2nc(O)c(-c3ccccc3)c(=O)[nH]2)cc1 [Compound 122]	0.1 to 1 µM

Compound	Kd
CC(=O)Nc1ccc(C(=O)CSc2nc(O)c(C3CCCC3)c(=O)[nH]2)cc1 [Compound 123]	< 0.1 µM
CC(=O)Nc1ccc(C(=O)CSc2nc3ccccc3c(=O)[nH]2)cc1 [Compound 124]	0.1 to 1 µM
O=C(CSc1nc(O)c(-c2ccccc2)c(=O)[nH]1)c1ccc(NC(=O)c2ccccc2)cc1 [Compound 125]	< 0.1 µM
CC(C)(C)OC(=O)Nc1ccc(C(=O)CSc2nc(O)c(-c3ccccc3)c(=O)[nH]2)cc1 [Compound 126]	0.1 to 1 µM
Nc1ccc(C(=O)CSc2nc(O)cc(=O)[nH]2)cc1 [Compound 127]	0.1 to 1 µM
O=C(CSc1nc(O)cc(=O)[nH]1)c1ccc(NC(=O)C(F)(F)F)cc1 [Compound 128]	< 0.1 µM
CC(C)C(=O)Nc1ccc(C(=O)CSc2nc(O)cc(=O)[nH]2)cc1 [Compound 129]	< 0.1 µM
O=C(CSc1nc(O)cc(=O)[nH]1)c1ccc(NC(=O)c2ccccc2)cc1 [Compound 130]	0.1 to 1 µM
CC(=O)Nc1ccc(C(=O)CSc2nc(O)cc(=O)n2C2CCCC2)cc1 [Compound 131]	< 0.1 µM
CC(=O)Nc1ccc(C(=O)CSc2nc(O)cc(=O)n2-c2ccccc2)cc1 [Compound 132]	0.1 to 1 µM
CC(=O)N(C)c1ccc(C(=O)CSc2nc(O)cc(=O)[nH]2)cc1 [Compound 133]	< 0.1 µM
CN(C)c1ccc(C(=O)CSc2nc(O)cc(=O)[nH]2)cc1 [Compound 134]	0.1 to 1 µM
CC(C)(C)OC(=O)Nc1ccc(C(=O)CSc2nc(O)cc(=O)[nH]2)cc1 [Compound 135]	0.1 to 1 µM
CC(=O)Nc1ccc(C(=O)CSc2nc(O)cc(=O)n2C2CC2)cc1 [Compound 136]	0.1 to 1 µM
O=C(CSc1nc(O)cc(=O)[nH]1)c1ccc(N2CCCC2=O)cc1 [Compound 137]	< 0.1 µM
O=C(CSc1nc(O)cc(=O)[nH]1)c1ccc2[nH]cnc2c1 [Compound 138]	0.1 to 1 µM
Cc1cccc(C(=O)CSc2nc(O)cc(=O)n2C)c1 [Compound 139]	0.1 to 1 µM
Cn1c(SCC(=O)c2ccccc2)nc(O)c(-c2ccccc2)c1=O [Compound 140]	0.1 to 1 µM
Cn1c(SCC(=O)c2ccc(F)cc2)nc(O)cc1=O [Compound 141]	0.1 to 1 µM
Cn1c(SCC(=O)c2cccc(F)c2)nc(O)cc1=O [Compound 142]	< 0.1 µM
Cn1c(SCC(=O)c2ccc(Cl)cc2)nc(O)cc1=O [Compound 143]	0.1 to 1 µM
Cn1c(SCC(=O)c2cccc(Cl)c2)nc(O)cc1=O [Compound 144]	0.1 to 1 µM
Cc1ccc(C(=O)CSc2nc(=O)c3ccccc3n2C)cc1 [Compound 145]	0.1 to 1 µM
